Experimental data reported in US8796302B2 (priority 2004, dated 2014).

Tested on: PGE2
Experiment: PGE2 release (EIA) after LPS
Assay type: cell-based, rat

## COc1ccc2c(c1)[C@@]13CCCC[C@H]1[C@@H](C2)N(C)CC3 [DM, d-3-methoxy-N-methylmorphinan]
DM 10^−5 M and 10^−14 M pretreatment
  LPS-induced increase in the release of PGE2: significantly decreased
DM 10^−10 M pretreatment
  LPS-induced increase in the release of PGE2: no significant reduction
Femtomolar DM after removal of LPS (20 ng/ml, 12 h), 24 h
  PGE2 production, post treatment: reduction of NO and PGE2 production
